Reference: PubChem BioAssay (NCI)
“And” between values parts separate entries of the source, which are not always exact repeats. Equal values may be shown once.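 Method: 48-hour compound exposure of cells in 96-well plates, five concentrations, linear interpolation of endpoints. Here, GI50 denotes the concentration required for 50% inhibition of growth. TGI: total growth inhibition.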

Assays:
Assay in all cases: inhibition of tumour cell growth, NCI panel, 48 h
ACHN renal = test system: ACHN renal
COLO 205 colon = test system: COLO 205 colon
DU-145 prostate = test system: DU-145 prostate
EKVX NSCLC = test system: EKVX NSCLC
HOP-92 NSCLC = test system: HOP-92 NSCLC
MOLT-4 leukemia = test system: MOLT-4 leukemia
SF-295 CNS = test system: SF-295 CNS
SK-MEL-2 melanoma = test system: SK-MEL-2 melanoma
SK-MEL-28 melanoma = test system: SK-MEL-28 melanoma
SN12C renal = test system: SN12C renal

COc1ccc2[nH]c(O)c(/C=c3/cc4c(c(-c5ccc(F)c(OC)c5)n3)=Nc3ccccc3-4)c2c1
GI50 (ACHN renal): 3.01 µM
TGI (ACHN renal): 9.86 µM
GI50 (COLO 205 colon): 2.56 µM
TGI (COLO 205 colon): 5.87 µM
GI50 (DU-145 prostate): 4.11 µM
TGI (DU-145 prostate): 32.6 µM
GI50 (EKVX NSCLC): 8.71 µM
TGI (EKVX NSCLC): 36 µM
GI50 (HOP-92 NSCLC): 1.5 µM
TGI (HOP-92 NSCLC): 6.62 µM
GI50 (MOLT-4 leukemia): 2.3 µM
TGI (MOLT-4 leukemia): 5.68 µM
GI50 (SF-295 CNS): 2.26 µM
TGI (SF-295 CNS): 6.51 µM
GI50 (SK-MEL-2 melanoma): 2.23 µM
TGI (SK-MEL-2 melanoma): 5.41 µM
GI50 (SK-MEL-28 melanoma): 2.06 µM
TGI (SK-MEL-28 melanoma): 4.51 µM
GI50 (SN12C renal): 12.9 µM
TGI (SN12C renal): 30.5 µM

CC(C)(C)[Si](C)(C)OCc1cccc(OCCOc2cccc(CO[Si](C)(C)C(C)(C)C)c2[N+](=O)[O-])c1[N+](=O)[O-]
TGI (ACHN renal): > 100 µM
TGI (COLO 205 colon): > 100 µM
TGI (DU-145 prostate): > 100 µM
TGI (EKVX NSCLC): > 100 µM
TGI (HOP-92 NSCLC): > 100 µM
TGI (MOLT-4 leukemia): > 100 µM
TGI (SF-295 CNS): > 100 µM
TGI (SK-MEL-2 melanoma): > 100 µM
TGI (SK-MEL-28 melanoma): > 100 µM
TGI (SN12C renal): > 100 µM

CCOP(=O)(O)CN1CCNCCN(CP(=O)(O)OCC)CCNCC1
TGI (ACHN renal): > 100 µM
TGI (COLO 205 colon): > 100 µM
TGI (DU-145 prostate): > 100 µM
TGI (EKVX NSCLC): > 100 µM
TGI (HOP-92 NSCLC): > 100 µM
TGI (MOLT-4 leukemia): > 100 µM
TGI (SF-295 CNS): > 100 µM
TGI (SK-MEL-2 melanoma): > 100 µM
TGI (SK-MEL-28 melanoma): > 100 µM
TGI (SN12C renal): > 100 µM

Cn1c(=O)oc2nc(-c3ccccc3)cc(C(F)(F)F)c21
TGI (ACHN renal): > 100 µM
TGI (COLO 205 colon): > 100 µM
TGI (DU-145 prostate): > 100 µM
TGI (EKVX NSCLC): > 100 µM
TGI (HOP-92 NSCLC): 81 µM
TGI (MOLT-4 leukemia): > 100 µM
TGI (SF-295 CNS): > 100 µM
TGI (SK-MEL-2 melanoma): > 100 µM
TGI (SK-MEL-28 melanoma): > 100 µM
TGI (SN12C renal): > 100 µM

Cc1nn(-c2ccccc2)c(C)c1/C=N/N=C1\S/C(=C\c2ccc(Cl)cc2)C(=O)N1c1ccccc1
TGI (ACHN renal): > 100 µM
TGI (COLO 205 colon): > 100 µM
TGI (DU-145 prostate): > 100 µM
TGI (EKVX NSCLC): > 100 µM
TGI (HOP-92 NSCLC): > 100 µM
TGI (MOLT-4 leukemia): 27.2 µM
TGI (SF-295 CNS): > 100 µM
TGI (SK-MEL-2 melanoma): > 100 µM
TGI (SK-MEL-28 melanoma): > 100 µM
TGI (SN12C renal): > 100 µM

CC1=C2C(=CO[C@H](C)[C@H]2C)C(=O)C(C(=O)O)=C1O
TGI (ACHN renal): 46.7 µM
GI50 (COLO 205 colon): 22.1 µM
TGI (COLO 205 colon): 77.3 µM and 45.8 µM
TGI (DU-145 prostate): 68.3 µM
GI50 (EKVX NSCLC): 28.9 µM
TGI (EKVX NSCLC): 83.6 µM and 63.2 µM
GI50 (HOP-92 NSCLC): 16.1 µM
TGI (HOP-92 NSCLC): 72.6 µM and 46.3 µM
GI50 (MOLT-4 leukemia): 34.1 µM
TGI (MOLT-4 leukemia): 40 µM and > 93.6 µM
GI50 (SF-295 CNS): 24.7 µM
TGI (SF-295 CNS): 97.1 µM and 61.3 µM
GI50 (SK-MEL-2 melanoma): 18.7 µM
TGI (SK-MEL-2 melanoma): 48.1 µM and 37.5 µM
GI50 (SK-MEL-28 melanoma): 23.9 µM
TGI (SK-MEL-28 melanoma): 93.5 µM and 54.9 µM
GI50 (SN12C renal): 9.07 µM
TGI (SN12C renal): 54.8 µM and 26.2 µM

C=C(C)[C@H]1C2=CC(C)=C(O2)[C@@H](O[C@@H]2c3oc(cc3C)[C@H](C(=C)C)[C@H]3C=C(CC[C@H]2C(=C)C)C(=O)O3)[C@H](C(=C)C)CCC2=C[C@H]1OC2=O
TGI (ACHN renal): > 100 µM
TGI (COLO 205 colon): > 100 µM
TGI (DU-145 prostate): > 100 µM
TGI (EKVX NSCLC): > 100 µM
TGI (HOP-92 NSCLC): > 100 µM
TGI (MOLT-4 leukemia): > 100 µM
TGI (SF-295 CNS): > 100 µM
TGI (SK-MEL-2 melanoma): > 100 µM
TGI (SK-MEL-28 melanoma): > 100 µM
TGI (SN12C renal): > 100 µM

Nc1nc(Cl)cc(NC23CC4CC(CC(C4)C2)C3)n1
TGI (ACHN renal): > 100 µM
TGI (COLO 205 colon): > 100 µM
TGI (DU-145 prostate): > 100 µM
TGI (EKVX NSCLC): > 100 µM
TGI (HOP-92 NSCLC): > 100 µM
TGI (MOLT-4 leukemia): > 100 µM
TGI (SF-295 CNS): > 100 µM
TGI (SK-MEL-2 melanoma): 71.4 µM
TGI (SK-MEL-28 melanoma): > 100 µM
TGI (SN12C renal): > 100 µM

CCc1cc2c(c3c1CCCC3=O)CC1(Cc3ccc(C(=O)OC)cc3C1)C2 (stereo not drawn)
TGI (ACHN renal): > 100 µM
TGI (COLO 205 colon): > 100 µM
TGI (DU-145 prostate): > 100 µM
TGI (EKVX NSCLC): > 100 µM
TGI (HOP-92 NSCLC): > 100 µM
TGI (MOLT-4 leukemia): > 100 µM
TGI (SF-295 CNS): > 100 µM
TGI (SK-MEL-2 melanoma): > 100 µM
TGI (SK-MEL-28 melanoma): > 100 µM
TGI (SN12C renal): > 100 µM

CCOC(=O)c1cc(C)nc2c1c(=O)n(-c1ccccc1)c(=O)n2CCCCN1CCN(c2ccccc2)CC1
TGI (ACHN renal): > 100 µM
TGI (COLO 205 colon): > 100 µM
TGI (DU-145 prostate): > 100 µM
TGI (EKVX NSCLC): > 100 µM
TGI (HOP-92 NSCLC): > 100 µM
TGI (MOLT-4 leukemia): > 100 µM
TGI (SF-295 CNS): > 100 µM
TGI (SK-MEL-2 melanoma): > 100 µM
TGI (SK-MEL-28 melanoma): > 100 µM
TGI (SN12C renal): > 100 µM

CC(=O)NC1C(OCc2ccccc2)OC(CO)C(O)C1OC(C)C(=O)NC(C(=O)NC(CCC(=O)NCCCCNc1c2ccccc2nc2cccc([N+](=O)[O-])c12)C(N)=O)C(C)C (stereo not drawn)
TGI (ACHN renal): 9.18 µM
TGI (COLO 205 colon): 11.6 µM
TGI (DU-145 prostate): 19.6 µM
TGI (EKVX NSCLC): 10.1 µM
TGI (HOP-92 NSCLC): 4.52 µM
TGI (MOLT-4 leukemia): 26.8 µM
TGI (SF-295 CNS): 43.1 µM
TGI (SK-MEL-2 melanoma): 12.5 µM
TGI (SK-MEL-28 melanoma): 7.19 µM
TGI (SN12C renal): 9.53 µM

COc1ccc(Nc2ccc3ccccc3c2-c2c(O)ccc3ccccc23)cc1
TGI (ACHN renal): 29.8 µM
TGI (COLO 205 colon): 47 µM
TGI (DU-145 prostate): 33.8 µM
TGI (EKVX NSCLC): 31.8 µM
TGI (HOP-92 NSCLC): 14.3 µM
TGI (MOLT-4 leukemia): 34.3 µM
TGI (SF-295 CNS): 34.6 µM
TGI (SK-MEL-2 melanoma): 28.3 µM
TGI (SK-MEL-28 melanoma): 31.7 µM
TGI (SN12C renal): 35.1 µM

C=C=C(CC(CC(=C)Br)(C(=O)OC)C(=O)OC)S(=O)(=O)c1ccccc1
TGI (ACHN renal): 6.83 µM
TGI (COLO 205 colon): 3.26 µM
TGI (DU-145 prostate): 3.35 µM
TGI (EKVX NSCLC): 10.8 µM
TGI (HOP-92 NSCLC): 3.97 µM
TGI (MOLT-4 leukemia): > 100 µM
TGI (SF-295 CNS): 26.9 µM
TGI (SK-MEL-2 melanoma): 8.22 µM
TGI (SK-MEL-28 melanoma): 3.23 µM
TGI (SN12C renal): 3.13 µM

O=C1c2c(O)cccc2-c2nn(CCNCCO)c3ccc(NCCNCCO)c1c23
TGI (ACHN renal): 0.992 µM
TGI (COLO 205 colon): 1.67 µM
TGI (DU-145 prostate): 0.0707 µM
TGI (EKVX NSCLC): 4.8 µM
TGI (HOP-92 NSCLC): 0.609 µM
TGI (MOLT-4 leukemia): 0.086 µM
TGI (SF-295 CNS): 1.39 µM
TGI (SK-MEL-2 melanoma): 1.38 µM
TGI (SK-MEL-28 melanoma): 1.97 µM
TGI (SN12C renal): 0.454 µM

C=CC[n+]1c2ccccc2n2cc([N+](=O)[O-])ccc21
TGI (ACHN renal): > 100 µM
TGI (COLO 205 colon): 26.2 µM
TGI (DU-145 prostate): > 100 µM
TGI (EKVX NSCLC): > 100 µM
TGI (HOP-92 NSCLC): 46.5 µM
TGI (MOLT-4 leukemia): 67.5 µM
TGI (SF-295 CNS): > 100 µM
TGI (SK-MEL-2 melanoma): 95.8 µM
TGI (SK-MEL-28 melanoma): 89.9 µM
TGI (SN12C renal): 68.7 µM

O=C(Nc1ccccc1C(=O)NCc1ccccc1)/C(=C/c1ccccc1)NC(=O)c1ccccc1
TGI (ACHN renal): > 100 µM
TGI (COLO 205 colon): > 100 µM
TGI (DU-145 prostate): > 100 µM
TGI (EKVX NSCLC): > 100 µM
TGI (HOP-92 NSCLC): > 100 µM
TGI (MOLT-4 leukemia): > 100 µM
TGI (SF-295 CNS): > 100 µM
TGI (SK-MEL-2 melanoma): > 100 µM
TGI (SK-MEL-28 melanoma): > 100 µM
TGI (SN12C renal): > 100 µM

Cc1nnc2n1N=C(c1ccc(Cl)cc1Cl)/C(=C/c1ccc(-c3ccc([N+](=O)[O-])cc3Cl)o1)S2
GI50 (ACHN renal): 18.5 µM
TGI (ACHN renal): 34.6 µM
GI50 (COLO 205 colon): 54.8 µM
TGI (COLO 205 colon): > 100 µM
GI50 (DU-145 prostate): 18.7 µM
TGI (DU-145 prostate): 38.9 µM
GI50 (EKVX NSCLC): 61.2 µM
TGI (EKVX NSCLC): > 100 µM
GI50 (HOP-92 NSCLC): 21.5 µM
TGI (HOP-92 NSCLC): 72.5 µM
GI50 (MOLT-4 leukemia): 13.1 µM
TGI (MOLT-4 leukemia): 33.6 µM
GI50 (SF-295 CNS): 43.5 µM
TGI (SF-295 CNS): > 100 µM
GI50 (SK-MEL-2 melanoma): 32.8 µM
TGI (SK-MEL-2 melanoma): > 100 µM
GI50 (SK-MEL-28 melanoma): 57.3 µM
TGI (SK-MEL-28 melanoma): > 100 µM
GI50 (SN12C renal): 17.8 µM
TGI (SN12C renal): 40.9 µM
